# Laboratory results as given in US7960377B2 (priority 2008, dated 2011).
# Read-outs that look alike come from different tables or passages of the source. Marks after values point to notes of the source that are not given here.
# Tests used:
# Assay in all cases: cell-based
# human CB2 receptor = human CB2 receptor (Homo sapiens, UniProt P34972); assay type: cell-based; conditions: for inverse agonist mark, human CB2 receptor: asterisk at the compound number
# human CB1 receptor = human CB1 receptor (Homo sapiens, UniProt P21554)
# rat CB2 receptor = target: T1, rat CB2 receptor (Rattus norvegicus, UniProt Q9QZN9); assay type: cell-based; conditions: for inverse agonist mark, rat CB2 receptor: asterisk at the compound number
# T1 sequence (Q9QZN9 1-360): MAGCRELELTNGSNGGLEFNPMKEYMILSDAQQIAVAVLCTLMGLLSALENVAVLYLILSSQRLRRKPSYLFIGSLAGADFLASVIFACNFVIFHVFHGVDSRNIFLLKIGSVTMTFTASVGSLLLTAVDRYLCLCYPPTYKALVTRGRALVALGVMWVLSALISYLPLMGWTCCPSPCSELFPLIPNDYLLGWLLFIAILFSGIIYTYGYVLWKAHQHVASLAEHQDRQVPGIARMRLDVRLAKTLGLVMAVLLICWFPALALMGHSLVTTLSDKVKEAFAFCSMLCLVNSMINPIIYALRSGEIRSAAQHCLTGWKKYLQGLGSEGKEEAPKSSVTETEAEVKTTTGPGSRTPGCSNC
# [1] = change in intracellular cAMP, CHO-K1 hCB2 cells, class AR, read-out: EC50 values for human CB2 receptor
# human CB1 receptor, sequence (P21554 whole entry): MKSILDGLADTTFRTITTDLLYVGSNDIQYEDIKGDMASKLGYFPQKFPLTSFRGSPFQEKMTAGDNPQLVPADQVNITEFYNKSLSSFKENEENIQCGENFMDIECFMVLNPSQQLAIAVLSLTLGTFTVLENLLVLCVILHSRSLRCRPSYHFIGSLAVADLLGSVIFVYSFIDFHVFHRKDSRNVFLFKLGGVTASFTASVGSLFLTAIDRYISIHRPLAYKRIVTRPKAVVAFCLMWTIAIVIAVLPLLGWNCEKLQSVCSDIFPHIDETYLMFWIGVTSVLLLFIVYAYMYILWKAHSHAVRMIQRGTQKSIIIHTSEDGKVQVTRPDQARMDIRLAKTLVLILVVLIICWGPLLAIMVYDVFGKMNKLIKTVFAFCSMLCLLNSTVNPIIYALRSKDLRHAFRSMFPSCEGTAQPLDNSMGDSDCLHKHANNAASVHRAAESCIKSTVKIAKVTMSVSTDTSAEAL
# human CB2 receptor, sequence (P34972 whole entry): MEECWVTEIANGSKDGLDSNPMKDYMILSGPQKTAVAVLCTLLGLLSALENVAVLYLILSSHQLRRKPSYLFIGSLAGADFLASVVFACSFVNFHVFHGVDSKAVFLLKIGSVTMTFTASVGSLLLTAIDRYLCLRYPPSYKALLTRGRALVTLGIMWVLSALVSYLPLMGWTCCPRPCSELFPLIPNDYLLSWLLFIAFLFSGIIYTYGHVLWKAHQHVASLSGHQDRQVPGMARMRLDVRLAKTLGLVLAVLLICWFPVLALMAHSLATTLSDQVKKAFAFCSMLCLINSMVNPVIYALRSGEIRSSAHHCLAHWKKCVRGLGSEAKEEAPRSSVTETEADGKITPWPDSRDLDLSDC
Compound,EC50 (human CB2 receptor) [µM],EC50 (human CB1 receptor) [µM],EC50 (rat CB2 receptor) [µM],"inverse agonist mark, rat CB2 receptor (rat CB2 receptor)","inverse agonist mark, human CB2 receptor (human CB2 receptor)",EC50 (human CB2 receptor; [1]) [µM]
"CNC(=O)[C@@H](NC(=O)c1cnc2c(c1)N(S(=O)(=O)c1ccccc1)CCO2)C(C)(C)C [Example 6, (S)-N-(3,3-dimethyl-1-(methylamino)-1-oxobutan-2-yl)-1-(phenyl-sulfonyl)-2,3-dihydro-1H-pyrido[2,3-b][1,4]oxazine-7-carboxamide]",> 30,> 30,≤ 0.03,"2, 3, 6*, 7, 8, 10, 11, 12, 15*, 20, 21, 22, 23, 24, 25, 26, 27, 33, 39,",,
"CNC(=O)[C@@H](NC(=O)c1cnc2c(c1)N(S(=O)(=O)c1ccc(F)cc1)CCO2)C(C)(C)C [Example 15, (S)-N-(3,3-dimethyl-1-(methylamino)-1-oxobutan-2-yl)-1-(4-fluorophenyl-sulfonyl)-2,3-dihydro-1H-pyrido [2,3-b][1,4]oxazine-7-carboxamide]",,> 30,≤ 0.03,"2, 3, 6*, 7, 8, 10, 11, 12, 15*, 20, 21, 22, 23, 24, 25, 26, 27, 33, 39,","1, 5, 9, 12, 14, 15*, 28, 29, 34, 35, 36, 37, 41, 44, 49, 50, 51, 54, 56,",
"CC(C)(C)N(CCCN)C(=O)c1cnc2c(c1)N(S(=O)(=O)c1ccc(C(F)(F)F)cc1)CCO2 [Example 45, N-(3-aminopropyl)-N-tert-butyl-1-(4-(trifluoromethyl)phenylsulf-onyl)-2,3-dihydro-1H-pyrido[2,3-b][1,4]oxazine-7-carboxamide]",,> 30,> 30,,,> 30
"O=C(c1cnc2c(c1)N(S(=O)(=O)c1ccc(C(F)(F)F)cc1)CCO2)N1CCS(=O)(=O)CC1 [Example 52, 1′,1′-dioxide-thiomorpholino(1-(4-(trifluoromethyl)phenylsulf-onyl)-2,3-dihydro-1H-pyrido[2,3-b][1,4]oxazin-7-yl)methanone]",,> 30,> 30,,,> 30
"CC(C)(C)NC(=O)c1cnc2c(c1)N(S(=O)(=O)c1ccc(Cl)c(Cl)c1)CCO2 [Example 55, N-tert-butyl-1-(3,4-dichlorophenylsulfonyl)-2,3-dihydro-1H-pyrido[2,3-b][1,4]oxazine-7-carboxamide]",≤ 0.03,> 30,≤ 0.03,,,
"CCC(C)(C)NC(=O)c1cnc2c(c1)N(S(=O)(=O)c1ccc(C(F)(F)F)cc1)CCO2 [Example 66, N-tert-pentyl-1-(4-(trifluoromethyl)phenylsulf-onyl)-2,3-dihydro-1H-pyrido[2,3-b][1,4]oxazine-7-carboxamide]",≤ 0.03,> 30,≤ 0.03,,,
"O=C(O)[C@H]1CCCCN1C(=O)c1cnc2c(c1)N(S(=O)(=O)c1ccc(C(F)(F)F)cc1)CCO2 [Example 78, (R)-1-(1-(4-(trifluoro-methyl)phenylsulfonyl)-2,3-dihydro-1H-pyrido-[2,3-b][1,4]oxazine-7-carbonyl)piperidine-2-carboxylic acid]",,> 30,> 30,,,> 30
"CC(C)(C)NC(=O)c1cnc2c(c1)N(S(=O)(=O)c1ccc(Cl)s1)CCO2 [Example 94, N-tert-butyl-1-(5-chlorothiophen-2-ylsulfonyl)-2,3-dihydro-1H-pyrido[2,3-b][1,4]oxazine-7-carboxamide]",,> 30,> 30,,,> 30
"CS(=O)(=O)N1CCN(C(=O)c2cnc3c(c2)N(S(=O)(=O)c2ccc(Cl)c(Cl)c2)CCO3)CC1 [Example 116, (1-(3,4-dichloro-phenylsulfonyl)-2,3-dihydro-1H-pyrido[2,3-b][1,4]oxazin-7-yl)(4-(methylsulfonyl)piperazin-1-yl)methanone]",,> 30,> 30,,,> 30
"CN(C)S(=O)(=O)N1CCN(C(=O)c2cnc3c(c2)N(S(=O)(=O)c2ccc(Cl)c(Cl)c2)CCO3)CC1 [Example 119, 4-(1-(3,4-dichlorophenylsulfonyl)-2,3-dihydro-1H-pyrido [2,3-b][1,4]oxazine-7-carbonyl)-N,N-dimethyl piperazine-1-sulfonamide]",,> 30,> 30,,,> 30
"O=C(N[C@@H]1CCCC[C@H]1O)c1cnc2c(c1)N(S(=O)(=O)c1ccc(Cl)c(Cl)c1)CCO2 [Example 135, 1-(3,4-dichlorophenyl-sulfonyl)-N-((1R,2R)-2-hydroxycyclohexyl)-2,3-dihydro-1H-pyrido[2,3-b][1,4]oxazine-7-carboxamide]",> 30,> 30,≤ 0.03,,,
"CC(C)(C)c1cc(NC(=O)c2cnc3c(c2)N(S(=O)(=O)N2CCC(C(F)(F)F)CC2)CCO3)on1 [Example 153, N-(3-tert-butylisoxazol-5-yl)-1-(4-(trifluoromethyl)piperidin-1-ylsulfonyl)-2,3-dihydro-1H-pyrido[2,3-b][1,4]oxazine-7-carboxamide]",> 30,≤ 0.3,≤ 0.03,"146, 148, 149, 150, 151, 152, 153*, 154*, 155, 156, 157, 163, 164,",,
"CC(C)(CO)NC(=O)c1cnc2c(c1)N(S(=O)(=O)N1CCC(c3ccccc3)CC1)CCO2 [Example 160, N-(1-hydroxy-2-methylpropan-2-yl)-1-(4-phenylpiperidin-1-ylsulfonyl)-2,3-dihydro-1H-pyrido[2,3-b][1,4]oxazine-7-carboxamide]",> 30,> 30,> 30,,,
"CC(C)(C)c1cc(NC(=O)c2cnc3c(c2)N(S(=O)(=O)N2CCC(c4ccccc4)CC2)CCO3)no1 [Example 162, N-(5-tert-butylisoxazol-3-yl)-1-(4-phenylpiperidin-1-ylsulfonyl)-2,3-dihydro-1H-pyrido[2,3-b][1,4]oxazine-7-carboxamide]",,> 30,,"108, 114, 117, 122, 126, 128, 129, 130, 141, 147, 162*, 165*, 179,","128, 129, 130, 132, 133, 140, 141, 142, 143, 147, 148, 149, 162*,",
"CCC(C)(C)NC(=O)c1cnc2c(c1)N(S(=O)(=O)N1CCC(F)CC1)CCO2 [Example 167, 1-(4-fluoropiperidin-1-ylsulfonyl)-N-tert-pentyl-2,3-dihydro-1H-pyrido[2,3-b][1,4]oxazine-7-carboxamide]",≤ 0.03,> 30,≤ 0.03,,,
"CCC(C)(C)NC(=O)c1cnc2c(c1)N(S(=O)(=O)N1CCC(N3CCCC3)CC1)CCO2 [Example 177, N-tert-pentyl-1-(4-(pyrrolidin-1-yl)piperidin-1-ylsulfonyl)-2,3-dihydro-1H-pyrido[2,3-b][1,4]oxazine-7-carboxamide]",> 30,> 30,> 30,,,
"CC(C)(CO)NC(=O)c1cnc2c(c1)N(S(=O)(=O)N1CCC(Cl)CC1)CCO2 [Example 186, 1-(4-chloropiperidin-1-ylsulfonyl)-N-(1-hydroxy-2-methylpropan-2-yl)-2,3-dihydro-1H-pyrido[2,3-b][1,4]oxazine-7-carboxamide]",> 30,> 30,≤ 0.03,,,
"CC(C)(CO)CNC(=O)c1cnc2c(c1)N(S(=O)(=O)N1CCc3ccccc3C1)CCO2 [Example 191, 1-(3,4-dihydroisoquinolin-2(1H)-ylsulfonyl)-N-(3-hydroxy-2,2-dimethylpropyl)-2,3-dihydro-1H pyrido[2,3-b][1,4]oxazine-7-carboxamide]",> 30,> 30,≤ 0.03,,,
